Assay results from patent publication US20070010551A1, “Quinoline derivatives as neutrophil elastase inhibitors and their use” (priority 2003, published 2007).

Molecular target: T1, Human Neutrophil Elastase (HNE) (Homo sapiens, UniProt P08246)
T1 construct: Human Neutrophil Elastase (HNE) purified from serum; purchased Calbiochem 324681; host or cells: natural human material (serum)
T1 sequence (P08246 30-247 limits assumed): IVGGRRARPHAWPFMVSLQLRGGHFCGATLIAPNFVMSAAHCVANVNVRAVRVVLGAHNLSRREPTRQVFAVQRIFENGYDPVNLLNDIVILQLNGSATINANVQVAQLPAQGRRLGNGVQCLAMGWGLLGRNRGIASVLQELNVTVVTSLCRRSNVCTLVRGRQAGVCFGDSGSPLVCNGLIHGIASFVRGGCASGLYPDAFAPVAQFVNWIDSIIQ
Experiment: Human Neutrophil Elastase Quenched-FRET Assay
Type: biochemical
Conditions: HNE purified from serum; substrate MeOSuc-AAPV-AMC; 15 min preincubation, 30 min incubation at room temperature; read-out: Inhibition of Human Neutrophil Elastase IC50
Protocol: Human Neutrophil Elastase Quenched-FRET Assay
The assay uses Human Neutrophil Elastase (HNE) purified from serum (Calbiochem art. 324681; Ref. Baugh, R. J. et al., 1976, Biochemistry. 15, 836-841). HNE was stored in 50 mM NaOAc, 200 mM NaCl, pH 5.5 with added 30% glycerol at −20° C. The protease substrate used was Elastase Substrate V Fluorogenic, MeOSuc-AAPV-AMC (Calbiochem art. 324740; Ref. Castillo, M. J. et al., 1979, Anal. Biochem. 99, 53-64). The substrate was stored in DMSO at −20° C. The assay additions were as follows: Test compounds and controls were added to black 96-well flat-bottom plates (Greiner 655076), 1 μL in 100% DMSO, followed by 30 μL HNE in assay buffer with 0.01% TritonX-100. The assay buffer constitution was: 100 mM Tris (pH 7.5) and 500 mM NaCl. The enzyme and the compounds were incubated at room temperature for 15 minutes. Then 30 μl substrate in assay buffer was added. The assay was stopped after 30 minutes incubation at room temperature by adding 60 μl stop solution (140 mM acetic acid, 200 mM sodium monochloroacetate, 60 mM sodium acetate, pH 4.3). Fluorescence was measured on a Wallac 1420 Victor 2 instrument at settings: Excitation 380 nm, Emission 460 nm. IC50 values were determined using Xlfit curve fitting using model 205.

IC50	Compound
500 nM	O=C(NCc1ccc(F)c(F)c1)c1cc2ccccc2n(-c2cccc(C(F)(F)F)c2)c1=O [Example 2.26, N-(3,4-Difluorobenzyl)-2-oxo-1-[3-(trifluoromethyl)phenyl]-1,2-dihydroquinoline-3-carboxamide]
390 nM	O=C(NCC1COc2ccccc2O1)c1cc2ccccc2n(-c2cccc(C(F)(F)F)c2)c1=O (stereo not drawn) [Example 2.51, N-(2,3-Dihydro-1,4-benzodioxin-2-ylmethyl)-2-oxo-1-[3-(trifluoromethyl)phenyl]-1,2-dihydroquinoline-3-carboxamide]
320 nM	CC(=O)Nc1ccc(CNC(=O)c2cc3ccccc3n(-c3cccc(C(F)(F)F)c3)c2=O)cc1 [Example 2.66, N-[4-(Acetylamino)benzyl]-2-oxo-1-[3-(trifluoromethyl)phenyl]-1,2-dihydroquinoline-3-carboxamide]
